Assay results from PubChem BioAssay AID179 (DTP/NCI, 2004).
The source made the active and inactive calls.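 How the source made its calls: active means compounds giving half or more protection of infected cells from virus-caused growth loss, again on retest; inactive means the rest.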

Tested on: CEM cells HIV-1 protection, formazan growth assay
Assay: NCI AIDS Antiviral Assay
Conditions: for IC50: measured here: growth of uninfected CEM cells
Summary of the method: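 Protection of CEM cells against HIV-1 measured as cell growth via soluble formazan read-out, with five concentrations tested on both infected and uninfected cells; failure to protect may reflect toxicity.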

SMILES | outcome | EC50 | IC50
COc1ccc2c3c(c(C(=O)c4ccccc4)oc13)CCC2 | inactive | – | –
O=c1[nH]c2cc(Cl)ccc2nc1/C(=N/Nc1ccccc1)C(O)c1ccco1 (stereo not given) | – | > 575 µM | > 575 µM
CCOC(=O)/C(N=O)=C(/O)CC(C)C | – | > 200 µM | > 200 µM
CCCC(=O)NC(Nc1ccc(S(=O)(=O)Nc2cc(C)on2)cc1)(C(=O)OCC)C(F)(F)F (stereo not given) | inactive | – | –
N#CCCC(CC#N)S(=O)(=O)O (stereo not given) | – | > 200 µM | > 200 µM
COc1cnn(-c2ccccc2)c(=O)c1SCc1ccc(Cl)cc1 | – | > 52.5 µM | 30.9 µM
O=S(=O)(Nc1ncccn1)c1ccc(N=NSC2=NC=NC3=NC=NC32)cc1 (stereo not given) | – | > 200 µM | 5.25 µM
CC(=O)CCn1[nH]c(=O)c(Cl)c(Cl)c1=O | – | > 1000 µM | > 1000 µM
O=[N+]([O-])c1ccc(Sc2c3ccccc3nc3cc(Cl)ccc23)cc1 | – | > 3.98 µM | > 3.98 µM
COc1ccc(/C=C2\CN(C)CC3C2=NN(c2ccccc2)C3c2ccc(OC)cc2)cc1 (stereo not given) | – | > 200 µM | > 200 µM
Nc1ccc(OCC(O)N2C(=O)c3ccccc3C2=O)cc1 (stereo not given) | – | > 200 µM | > 200 µM
COCCN(CCNC(=O)c1cccc2c(N)c3cccc(C)c3nc12)CCOC | – | > 2 µM | 0.269 µM
COc1ccccc1C(N)c1ccccc1 (stereo not given) | – | > 501 µM | 89.1 µM
COc1ccc(CCCNC(=O)Cc2ccccc2CO)cc1OC | – | > 200 µM | > 200 µM
FC(F)(F)C12C34C=CC5(CCC6(C=CC1(CC3)O6)C52C(F)(F)F)O4 (stereo not given) | inactive | – | –
C#CC1(O)CCC2C3CCc4cc(Oc5nc(F)nc(-c6c7ccccc7c7n6CCS7)n5)ccc4C3CC[C@@]21C (stereo not given in full) | – | > 200 µM | 11.2 µM
CC(=O)C1=CN=C2C(=O)N(c3ccccc3)N(C)C12C (stereo not given) | – | > 200 µM | > 200 µM
O=C1CC2c3ccccc3CCC2c2ccccc21 (stereo not given) | – | > 200 µM | 7.59 µM
CC(=O)O/C=C\OC1CCCC1 | – | > 200 µM | > 200 µM
COC(CNC(=O)C(C)NC(=O)C(C)NC(=O)c1ccccc1)OC (stereo not given) | inactive | – | –
O=C1/C(=C/c2ccc([N+](=O)[O-])cc2)CNC/C1=C\c1ccc([N+](=O)[O-])cc1 | – | > 2 µM | 0.363 µM

SMILES | outcome | EC50 | IC50
COC(=O)CSc1n[nH]c(-c2ccc(O)c([N+](=O)[O-])c2)n1 | – | > 115 µM | > 115 µM
CCC1(CC)C(=O)[N-]C(=O)[N-]C1=O.[Au+].[Au+].c1ccc([PH+](c2ccccc2)c2ccccc2)cc1.c1ccc([PH+](c2ccccc2)c2ccccc2)cc1 | – | > 6.61 µM | > 6.61 µM
C1CSC[C@H]2COC[C@@H](CSCCS1)S2 | – | > 631 µM | > 631 µM
COc1ccc2c(c1)N(C(C)=O)CN1C(=O)CCC21 (stereo not given) | inactive | – | –
CC1(C)COC(=O)N1 | – | > 1550 µM | > 1550 µM
CCOC(=O)c1nc2ccc(C(F)(F)F)cc2nc1Oc1ccc(OC)cc1 | – | > 200 µM | > 200 µM
O=c1oc2ccccc2c(O)c1C(C/C(CCN1CCCC1)=N/O)c1ccccc1 (stereo not given) | – | > 42.7 µM | > 42.7 µM
CCCCOCCOC(=O)C1C(C=C(C)C)C1(C)C (stereo not given) | – | > 200 µM | > 200 µM
COC1/C=C/OC2(C)Oc3c(C)c(O)c4c(O)c(cc(OCC(=O)N5C(C)CCC5C)c4c3C2=O)NC(=O)/C(C)=C/C=C/C(C)C(O)C(C)C(O)C(C)C(OC(C)=O)C1C (stereo not given) | – | > 200 µM | 43.7 µM
CCCCCCCCCCCCOC(=N)N(C)C | – | > 200 µM | 2 µM
N#CCCC(CCC#N)(CCC#N)NO | – | > 200 µM | > 200 µM
O=C(c1ccccc1)C(c1ccccc1)C1(O)C(=O)Nc2ccc([N+](=O)[O-])cc21 (stereo not given) | – | > 25.7 µM | > 25.7 µM
CCCCCCC[C@@H](O)CC(=O)NC(CC(C)C)C(=O)NC(CCC(=O)O)C(=O)NC1C(=O)NC(C(C)C)C(=O)NC(CC(C)C)C(=O)NC(CO)C(=O)NC(CC(C)C)C(=O)NC(CO)C(=O)NC(C(C)CC)C(=O)OC1C (stereo not given in full) | – | 91.2 µM | 166 µM
COC1CCC(OS(C)(=O)=O)CO1 (stereo not given) | – | > 200 µM | 33.9 µM
c1ccc(SSc2ccc3ccccc3c2)cc1 | – | > 200 µM | 9.33 µM
COC(=O)C(CCCC1(c2ccccc2)OCCO1)C(C)=O (stereo not given) | – | > 200 µM | > 200 µM
O=C(O)CNc1cc(-c2ccccc2)nc(NCC(=O)O)n1 | inactive | – | –
c1ccc([C@H]2CN3CCSC3=N2)cc1 | – | > 200 µM | > 200 µM
[Ni+2].[O-]/C(=N\N=C\c1ccccn1)c1ccccc1O.[O-]/C(=N\N=C\c1ccccn1)c1ccccc1O | – | > 200 µM | 6.17 µM
CC(C)C1N2CCCCC2[C@@H]2c3[nH]c4ccccc4c3CCN12 (stereo not given in full) | – | > 81.3 µM | > 81.3 µM
CC1OCC2OC(C)OC(C3C4=C(CC(C)(C)CC4=O)OC4=C3C(=O)CC(C)(C)C4)C2O1 (stereo not given) | – | > 562 µM | 550 µM

SMILES | outcome | EC50 | IC50
CCCOC(=O)c1cc(C(=CCC[C@H]2CC[C@@]3(C)[C@@H](CC[C@@H]4[C@@H]3CC[C@]3(C)[C@@H](C(C)CCCC(C)C)CC[C@@H]43)C2)c2cc(Cl)c(O)c(C(=O)OCCC)c2)cc(Cl)c1O (stereo not given in full) | – | > 151 µM | > 151 µM
Cc1cc2c(cc1O)CC[C@@H]1[C@@H]2CC[C@]2(C)[C@@H](O)CC[C@@H]12 | – | > 200 µM | 4.07 µM
C=C=C(Sc1ccccc1)C(C)(C)O | – | > 251 µM | 158 µM
COCN1C(=O)[C@@H]2C[C@@H](O)CN2C(=O)c2ccccc21 | – | > 200 µM | > 200 µM
COC1/C=C/OC2(C)Oc3c(C)c(O)c4c(O)c(c(/C=N/Nc5nc6c(N)ncnc6n5C5OC(CO)C(O)C5O)c(O)c4c3C2=O)NC(=O)C(C)=C/C=C/C(C)C(O)C(C)C(O)C(C)C(OC(C)=O)C1C (stereo not given) | – | > 200 µM | 158 µM
COc1ccccc1C(=O)N(C)c1ccc(Cl)c(C(=O)OC(C)C)c1 | inactive | – | –
CC(C)N(CN1C(=O)N/C(=C/c2cccc(/C=C3/NC(=O)N(CN(C(C)C)C(C)C)C3=O)c2)C1=O)C(C)C | – | > 501 µM | 75.9 µM
Cc1ccsc1/C=N/Nc1nncc2ccccc12 | – | > 200 µM | 25.1 µM
CC12C(=C(C#N)C(=N)N1c1ccc(Cl)c(Cl)c1)C=C(O)CC2SCCS(=O)(=O)O (stereo not given) | – | 33.1 µM | 67.6 µM
COc1cc(OC)c(OC)cc1/C=N/NC(=O)N/N=C/c1cc(OC)c(OC)cc1OC | inactive | – | –
c1ccc2sc(SSSSc3nc4ccccc4s3)nc2c1 | – | > 200 µM | 174 µM
CC(=O)N1C(Nc2nccs2)CCN1c1ccccc1 (stereo not given) | – | > 200 µM | 26.9 µM
C=C(COC(=O)CC(C)(C)CC(=O)O)[C@@H]1CC[C@]2(COC(=O)CC(C)(C)CC(=O)O)CC[C@]3(C)[C@H](CC[C@@H]4[C@@]5(C)CC[C@H](OC(=O)CC(C)(C)CC(=O)O)C(C)(C)[C@@H]5CC[C@]43C)[C@@H]12 | – | > 200 µM | 24.5 µM
CN(C)CCn1c(=O)c2ccc(NCCNCCO)c3c(=O)c4ccccc4n(c1=O)c23 | – | > 0.2 µM | 0.0112 µM
COc1cc(NCc2ccc3nc(-c4ccccc4)c(N)nc3c2)cc(OC)c1OC | – | > 200 µM | 49 µM
O=C(O)c1ccc2c3c(n[se]c13)-c1ccccc1C2=O | – | > 8.32 µM | > 8.32 µM
COc1ccc(CSc2ccccc2Cn2cccc2)cc1OC | inactive | – | –
CC1=CC(C)(C)Nc2ccc(OC(=O)/C=C(C)/C=C/C=C(C)/C=C/C3=C(C)CCCC3(C)C)cc21 | – | > 200 µM | 27.5 µM
Cc1cc(C(=O)N2CCN(Cc3ccccc3)CC2)c(C)o1 | – | > 741 µM | 324 µM
COC(=O)[C@](NC(=O)OCc1ccccc1)([C@@H](C)S(=O)c1ccc(C)cc1)C(F)(F)F (stereo not given in full) | – | > 200 µM | 29.5 µM
N#CC1=C2SCCN2C(=O)C(C#N)C12CCCCC2 (stereo not given) | – | > 200 µM | > 200 µM

SMILES | outcome | EC50 | IC50
COc1ccc(C2C(Cl)C(=O)N2NC(=O)c2ccc(NC(C)=O)cc2)cc1 (stereo not given) | – | > 200 µM | > 200 µM
C/C(=N\O)c1sc(-n2nc(-c3ccccc3)cc2-c2ccccc2)nc1C | – | > 95.5 µM | 44.7 µM
COc1ccccc1C1CC(=O)CC(c2ccccc2OC)C12C(=O)NC(=S)NC2=O (stereo not given) | – | > 200 µM | 46.8 µM
O=S(=O)(F)c1ccccc1C[P+](c1ccccc1)(c1ccccc1)c1ccccc1 | – | > 200 µM | 17.8 µM
Cc1ccc(S(=O)c2ccccc2[N+](=O)[O-])cc1 (stereo not given) | – | > 35.5 µM | 28.2 µM
CC(=O)C1C(=O)C(=O)N(c2ccccc2)C1=O (stereo not given) | – | > 200 µM | > 200 µM
O=C(C[n+]1ccccc1)NNC(=O)/C(=C/c1ccc2c(c1)OCO2)NC(=O)c1ccccc1 | – | > 7.76 µM | > 7.76 µM
O=c1[nH]c(=O)n(C2CC(F)C(CO)O2)cc1COCC(F)(F)F (stereo not given) | – | 0.17 µM | 204 µM
COC(=O)c1sc(=NC(=S)N2CCCCC2)sc1C(=O)OC | inactive | – | –
CC[N+](C)(CC)CCC(O)(c1ccccc1)c1ccccc1 | – | > 200 µM | > 200 µM
O=c1nc(NC(c2ccccc2)(c2ccccc2)c2ccccc2)ccn1CCCl | inactive | – | –
Nc1ncnc2c1ncn2COC/C=C/I | – | > 204 µM | 155 µM
CC1C(c2ccc(F)cc2)c2cc3c(cc2OC1N1CCCC1)OCO3 (stereo not given) | – | > 200 µM | 129 µM
C[S+]1CC2C3CC(C#N)C(C3)C2C1 (stereo not given) | – | > 275 µM | > 275 µM
O=c1[nH]c(=O)n(C2CC(O)C(COP(=O)(On3nnc4ccccc43)N3CCCCC3)O2)cc1F (stereo not given) | – | > 200 µM | 0.0631 µM
CC(=O)OC(C)(C)C1CC[C@]2(C)/C=C/C(C)C[C@@H](O)/C=C(\C)CC(O)C12 (stereo not given in full) | inactive | – | –
O=c1/c(=C/c2cccc3ccccc23)sc2nc3ccccc3n12 | – | > 30.2 µM | > 30.2 µM
COC1CCCCC1C(N)C(=O)O (stereo not given) (tested in a mixture with another compound) | – | > 200 µM | > 200 µM
COC(=O)c1ccccc1OCc1cc(=O)oc2ccc(C)cc12 | inactive | – | –
Cc1ccc(S(=O)(=O)n2ccn3c(=O)cc(C)nc23)cc1 | – | > 200 µM | > 200 µM
CCCCCCCCCCCC(=O)OCC1OC(n2cc(F)c(=O)[nH]c2=O)C(N)C(O)C1O (stereo not given) | – | > 55 µM | > 55 µM
